The values that follow come from patent US20120190751A1, “COMPOUNDS FOR TREATMENTS OF INFLAMMATION” (ANA-MAR AB, priority 2009, published 2012).

Where a name gives a salt, the structure may show the parent alone. Read-outs that look alike come from different tables or passages of the source.

The target of one test is 5HT2B receptor (Homo sapiens, UniProt P41595). The settings on record: cited from earlier work.
For a further test, the system named is rat synoviocytes. Briefly: IL-6 release from LPS-stimulated rat synoviocytes. The class given is cell-based. The following applies: 72 hours; for IL-6 release on agonist stimulation: 1 μM agonist in the presence of LPS 50 ng/ml; for IL-6 release induced by 5-HT and LPS: 1 μM 5-HT + LPS 50 ng/ml, test substance 0.1, 1 or 10 μM, FIG. 7A. Here is the method:
Pannus from the inflamed knee of rats with antigen-induced arthritis (AIA) (see description of this model below; Andersson, S. E et al., (1998), J. Rheumatology 25: 1772-1777) was isolated three to five days after challenge, stored in PBS supplemented with 100 U/ml Penicillin-Streptomycin (PEST, Invitrogen Corporation) and 2.5 μg/ml Fungizone (Amphotericin B, Invitrogen) until it was further processed within a couple of hours. The PBS was discarded and the tissue cut in small pieces followed by digestion in a collagenase solution (400 U/ml; type 1 CLS-1, Worthington) for 3 hours at 37° C., 5% CO2. The suspension was filtered through a nylon mesh (70 μm), washed with tissue culture medium (RPMI-1640 with L-glutamine, Invitrogen, supplemented with 10% fetal bovine serum (FBS) and 100 U/ml PEST and 2.5 μg/ml Fungizone) and centrifuged (257 g). The cells were resuspended in tissue culture medium and seeded in cell culture flasks (T25, TPP). After overnight culture, nonadherent cells were removed by exchanging the medium, the cells were incubated at 37° C., 5% CO2, the medium was exchanged every third day until confluence was reached (7-10 days). The culture consisted of a mixed cell population with the principal constituents being fibroblasts and macrophages (Andersson, S. E. et al. (2000), Eur. J. Pharm. Sci 9: 333-343).
The cells were counted and reseeded at a density of 10000 cells/0.2 ml in 96-well cell culture plates (Nunc). After overnight culture the cells were stimulated with 50 ng/ml Lipopolysaccharide (LPS, E. coli 055:B5, Sigma) with simultaneous addition of 0.1, 1 and 10 μM N-(2-chloro-3,4-dimethoxybenzylideneamino)guanidine and 1 μM of 5-HT2 receptor agonists (triplicates). The cells were incubated for 72 hours after which the supernatants were collected and analyzed for IL-6 (OptEIA™ Set Rat IL-6). The effect of treatment on cell viability was determined using the cell proliferation reagent, WST-1 (Roche Diagnostics).
Inflamed knee joints of rats with antigen-induced arthritis (AIA) were dissected four days after intra-articular challenge with antigen. Freshly isolated pannus tissue was collected in phosphate-buffered saline (PBS) supplemented with 100 U/ml penicillin, streptomycin (PEST, Invitrogen) and 2.5 μg/ml Fungizone (Amphotericin B, Invitrogen), finely minced with a pair of scissors and digested with 400 U/ml collagenase (type 1 CLS-1, Worthington) in RPMI 1640 (Gibco) supplemented with PEST and fungizone (2.5 μg/ml) for 3 hours. The cell suspension was filtered through a 70 μm nylon mesh and the cells collected by centrifugation at 257×g, 10 min. The cells were resuspended in RPMI 1640 supplemented with 10% FBS (Gibco), PEST and fungizone (culture medium), plated in T25 flasks (TPP Cat#90026). After overnight incubation nonadherent cells were removed and the culture medium was replaced every third day until the cells approached confluency (normally achieved within 7-10 days). At near-confluency, the cells were washed with PBS and harvested by trypsination. After washing in PBS the cells were resuspended in culture medium and seeded at 10.000 cells/well/0.2 ml in 96 well plates (Nunc cat#167008). After overnight culture the culture medium was replaced with fresh medium and 50 ng/ml LPS (Sigma, L6529) together with different concentrations of 5-HT, 5-HT2 receptor agonists and/or antagonists and N-(2-chloro-3,4-dimethoxybenzylideneamino)guanidine. The cells were incubated for 72 hours after which the supernatants were collected and analyzed for IL-6 (BD OptEIA™ Set). The effect of treatment on cell viability was determined using the cell proliferation reagent, WST-1 (Roche Diagnostics). In another experiment rat synoviocytes were incubated with 50 ng/ml LPS for 2 or 22 hours were after the levels of 5-HT was analysed in the cell culture medium using a Serotonin ELISA kit (IBL International, RE59121). We also incubated rat synoviocytes with 5-HT (10 μM) and measured the gene expression of 5-HT2B and 5-HT2C.

The subject of test [1] is antigen-induced arthritis. The following applies: Andersson et al. 2000; cited from earlier work.
Setting [2] is: 5HT2B receptor antagonists, Table 1.

Chain of 5HT2B receptor (P41595 whole entry): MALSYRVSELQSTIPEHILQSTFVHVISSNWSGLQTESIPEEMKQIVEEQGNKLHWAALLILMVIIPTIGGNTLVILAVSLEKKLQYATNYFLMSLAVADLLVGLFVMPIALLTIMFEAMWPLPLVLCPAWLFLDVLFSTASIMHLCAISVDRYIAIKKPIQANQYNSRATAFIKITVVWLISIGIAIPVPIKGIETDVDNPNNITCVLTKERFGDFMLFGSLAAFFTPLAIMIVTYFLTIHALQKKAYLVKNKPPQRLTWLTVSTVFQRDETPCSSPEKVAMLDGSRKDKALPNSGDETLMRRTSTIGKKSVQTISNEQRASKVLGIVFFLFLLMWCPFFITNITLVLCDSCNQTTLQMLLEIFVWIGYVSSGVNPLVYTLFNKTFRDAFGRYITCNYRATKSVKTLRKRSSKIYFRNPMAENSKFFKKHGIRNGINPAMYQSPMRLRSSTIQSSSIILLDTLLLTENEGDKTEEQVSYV

In the case of `CN1CCC2CN3CCc4cccc(c43)C2C1` (single isomer, unassigned; (+)) [SDZ SER-082, (+)-cis-4,5,7a,8,9,10,11,11a-octahydro-7H-10-methylindolo[1,7-bc][2,6]-naphthyridine], the Affinity on 5HT2B receptor (setting [2]) is reported as 6.7 pKi.

On to `CC(N)Cc1c[nH]c2ccc(OCc3cccs3)cc12` (stereo not drawn) [BW 723C86], for which, in the test on rat synoviocytes, the “IL-6 release on agonist stimulation” value is recorded as “induces a response in IL-6 production”.

As for `Cc1cc([N+](=O)[O-])c(N2CCN(Cc3ccccc3)CC2)cc1N` [EGIS-7625, 1-benzyl-4-[(2-nitro-4-methyl-5-amino)-phenyl]-piperazine], on 5HT2B receptor (setting [2]), the Affinity is 9.0 pKi.

`NCCc1c[nH]c2ccc(O)cc12` [Example 5-HT, 5-Hydroxytryptamine]: the “IL-6 release on agonist stimulation” value in the test with rat synoviocytes was “clear increase in IL-6 release”.

Regarding `CC(O)C(C)OC(=O)[C@@H]1C[C@@H]2c3cccc4c3c(cn4C(C)C)C[C@H]2N(C)C1.O=C(O)/C=C\C(=O)O` (stereo partly drawn) [LY53857, 6-Methyl-1-(1-methylethyl)ergoline-8β-carboxylic acid 2-hydroxy-1-methylpropyl ester maleate salt], the Affinity on 5HT2B receptor was 8.2 pKi.

With `CC(O)C(C)OC(=O)C1CC2c3cccc4[nH]cc(c34)CC2N(C)C1` (stereo not drawn) [LY86057], the Affinity at 5HT2B receptor (setting [2]) is given as 7.9 pKi.

In the case of `OC(c1ccccc1)C1CCN(CCc2ccccc2)CC1` (stereo not drawn) [MDL-11,939, α-phenyl-1-(2-phenylethyl)-4-piperidinemethanol], the Affinity on 5HT2B receptor (setting [2]) is 5.5 pKi.

For `COc1cc(OC)c(C(=O)CCCCN2CCC3(CC2)NC(=O)NC3=O)cc1NS(=O)(=O)c1ccc(C(F)(F)F)cc1` [RS-102221], on 5HT2B receptor (setting [2]), the Affinity was 6.0-6.1 pKi.

Consider `CC(C)c1cc(-c2ccc(F)c3ccccc23)nc(N)n1` [RS-127445-190], for which the Affinity on 5HT2B receptor (setting [2]) is 9.5 pKi.

In the case of `CC(C)c1cc(-c2ccc(F)c3ccccc23)nc(N)n1` [RS-127445], the Affinity at 5HT2B receptor was 9.0 pKi. The “IL-6 release induced by 5-HT and LPS” value with rat synoviocytes was “clearly reduced the IL-6 release”.

Regarding `Cn1ccc2cc(NC(=O)Nc3cccnc3)ccc21` [SB 200646, N-(1-Methyl-1H-indol-5-yl)-N′-3-pyridinylurea], the Affinity at 5HT2B receptor (setting [2]) is listed as 7.4 pKi.

As for `Cn1ccc2cc3c(cc21)CCN3C(=O)Nc1cccnc1` [SB 206553, 5-methyl-1-(3-pyridylcarbamoyl)-1,2,3,5-tetrahydrolpyrrolo[2,3-f]indole], on 5HT2B receptor (setting [2]), the Affinity is given as 7.6-8.5 pKi.

In the case of `Cc1cc2c(cc1Cl)N(C(=O)Nc1cccc3ncccc13)CC2` [SB 215505, 6-chloro-5-methyl-1-(5-quinolylcarbamoyl)indoline], the Affinity on 5HT2B receptor (setting [2]) is recorded as 8.3 pKi.

With `CSc1cc2c(cc1C(F)(F)F)N(C(=O)Nc1cccnc1)CC2` [SB 221284, 5-(methylthio)-1-(3-pyridylcarbamoyl-6-trifluoromethyl)indoline], on 5HT2B receptor (setting [2]), the Affinity is recorded as 8.6 pKi.

For the molecule `Cc1nc(-c2ccc(-c3ccc(C(=O)N4CCc5cc6c(cc54)C4(CCN(C)CC4)CO6)cc3)c(C)c2)no1` [SB 224289, 1′-methyl-5-[[2′-methyl-4′-(5-methyl-1,2,4-oxadiazol-3-yl)biphenyl-4-yl]carbonyl]-2,3,6,7-tetrahydrospiro[furo[2,3-f]indole-3,4′-piperidine hydrochloride], the Affinity on 5HT2B receptor (setting [2]) is 5.9 pKi.

For the molecule `COc1cc2c(cc1C(F)(F)F)N(C(=O)Nc1cc(F)cc(-c3cccnc3)c1)CC2` [SB 228357, 1-5[-fluoro-3-(3-pyridyl)phenyl-carbamoyl]-5-methoxy-6-trifuoromethylindoline], the Affinity on 5HT2B receptor (setting [2]) is 8.0-8.1 pKi.

For the molecule `Cc1cc2c(cc1Cl)N(C(=O)Nc1ccc(Oc3cccnc3C)nc1)CC2` [SB 242084, 6-chloro-5-methyl-1-[6-(-methylpyridin-3-yloxy)pyridin-3-ylcarbomyl]indoline], the Affinity on 5HT2B receptor is 6.8-7.0 pKi. Besides, the “IL-6 release induced by 5-HT and LPS” value in the test with rat synoviocytes is on record as “clearly reduced the IL-6 release”.

Regarding `COc1ccc2cccc(CCNC(C)=O)c2c1` [agomelatine, N-[2-(7-methoxynaphthalen-1-yl)ethyl]acetamide], at 5HT2B receptor (setting [2]), the Affinity was 6.6 pKi.

In the case of `CC(C)n1cc2c3c(cccc31)[C@H]1CC(C(=O)NC3CCCCC3)CN(C)[C@@H]1C2` (stereo partly drawn) [amesergide, N-Cyclohexyl-1-isopropyl-6-methylergoline-8-carboxamide], the Affinity on 5HT2B receptor (setting [2]) is reported as 8.0 pKi.

For the molecule `CN1CCc2cccc3c2C1Cc1ccc(O)c(O)c1-3` (stereo not drawn) [apomorphine, 5,6,6a,7-Tetrahydro-6-methyl-4H-dibenzo[de,g]quinolin-10,11-diol], at 5HT2B receptor (setting [2]), the Affinity was 6.9 pKi.

Take `CC(C)C[C@H]1C(=O)N2CCC[C@H]2[C@]2(O)O[C@](NC(=O)[C@@H]3C=C4c5cccc6[nH]c(Br)c(c56)C[C@H]4N(C)C3)(C(C)C)C(=O)N12` [bromocriptine]: the Affinity on 5HT2B receptor (setting [2]) is on record as 7.3 pKi.

Turning to `CN(Cc1cnc2nc(N)nc(N)c2n1)c1ccc(C(=O)N[C@@H](CCC(=O)O)C(=O)O)cc1` [methotrexate], the “effect in the AIA model (literature)” value in test [1] is recorded as “anti-arthritic effect”.

In the case of `NCCC(Oc1ccc(C(F)(F)F)cc1)c1ccccc1` (stereo not drawn) [norfluoxetine], the Affinity on 5HT2B receptor (setting [2]) is on record as 5.3 pKi.

`CCCCN1CCC(CNC(=O)c2c3n(c4ccccc24)CCCO3)CC1` [piboserod, N-((1-Butyl-4-piperidyl)-methyl)-3,4-dihydro-2H-(1,3)oxazino(3,2-a)-indole-10-carboxamide]: at 5HT2B receptor (setting [2]), the Affinity was 6.6 pKi.

On to `c1cnc(N2CCN(Cc3ccc4c(c3)OCO4)CC2)nc1` [piribedil, 2-[4-(1,3-benzodioxol-5-ylmethyl)piperazin-1-yl]pyrimidine], for which, on 5HT2B receptor (setting [2]), the Affinity is listed as 5.9 pKi.

With `Cc1nc2sccn2c(=O)c1CCN1CCC(=C(c2ccc(F)cc2)c2ccc(F)cc2)CC1` [ritanserin, 4-[2-[4-[bis(4-fluorophenyl)methylidene]-1-piperidyl]ethyl]-3-methyl-9-thia-2,6-diazabicyclo[4.3.0]nona-1,3,7-trien-5-one], at 5HT2B receptor (setting [2]), the Affinity is 8.7-9.2 pKi.

Regarding `Oc1ccc2[nH]cc(CCCCN3CC=C(c4ccccc4)CC3)c2c1` [roxindole, 3-[4-(4-phenyl-3,6-dihydro-2H-pyridin-1-yl)butyl]-1H-indol-5-ol], the Affinity at 5HT2B receptor (setting [2]) is listed as 7.5 pKi.

For the molecule `COc1cccc(CCc2ccccc2OCC(CN(C)C)OC(=O)CCC(=O)O)c1` (stereo not drawn) [sarpogrelate, 4-[1-dimethylamino-3-[2-[2-(3-methoxyphenyl)ethyl]phenoxy]-propan-2-yl]oxy-4-oxo-butanoic acid], at 5HT2B receptor (setting [2]), the Affinity is given as 6.6 pKi.

Regarding `O=C(CCCN1CCC2(CC1)C(=O)NCN2c1ccccc1)c1ccc(F)cc1` [spiperone, 8-[4-(4-fluorophenyl)-4-oxo-butyl]-1-phenyl-1,3,8-triazaspiro[4.5]decan-4-one], the Affinity at 5HT2B receptor (setting [2]) is listed as 5.9-6.5 pKi.

As for `O=C1NCN(c2ccccc2)C12CCN(CC1COc3ccccc3O1)CC2` (stereo not drawn) [spiroxatrine, 8-(7,10-dioxabicyclo[4.4.0]deca-1,3,5-trien-8-ylmethyl)-4-phenyl-2,4,8-triazaspiro[4.5]decan-1-one], the Affinity at 5HT2B receptor (setting [2]) was 6.3-6.8 pKi.

Consider `CCN(CC)C(=O)N[C@H]1C[C@@H]2c3cccc4[nH]cc(c34)C[C@H]2N(C)C1` [terguride, N,N-diethyl-N′-[(8α)-6-methylergolin-8-yl]urea], for which the Affinity on 5HT2B receptor (setting [2]) is 8.2 pKi.
